From ChEMBL document CHEMBL2010691, “Discovery of loperamide as an antagonist of angiopoietin1 and angiopoietin2 by virtual screening” (Bioorg Med Chem Lett, 2012)
pKd: −log10 of the molar value. Activity calls are given as the source filed them. No cut-off for these calls is given here.

How the values were obtained:
Angiopoietin-1 receptor [1] = biological target: T1, Angiopoietin-1 receptor (Homo sapiens, UniProt Q02763); assay: Displacement of angiopoietin 1 from human recombinant Tie2 at 50 to 100 uM
Angiopoietin-1 receptor [2] = biological target: T1, Angiopoietin-1 receptor; assay: Binding affinity to human recombinant Tie2 by SPR assay
Angiopoietin-1 receptor [3] = biological target: T1, Angiopoietin-1 receptor; assay: Displacement of angiopoietin 2 from human recombinant Tie2 at 25 to 100 uM
Angiopoietin-1 receptor [4] = biological target: T1, Angiopoietin-1 receptor; assay: Displacement of angiopoietin 1 from human recombinant Tie2 at 25 to 100 uM

T1 sequence (Q02763 whole entry): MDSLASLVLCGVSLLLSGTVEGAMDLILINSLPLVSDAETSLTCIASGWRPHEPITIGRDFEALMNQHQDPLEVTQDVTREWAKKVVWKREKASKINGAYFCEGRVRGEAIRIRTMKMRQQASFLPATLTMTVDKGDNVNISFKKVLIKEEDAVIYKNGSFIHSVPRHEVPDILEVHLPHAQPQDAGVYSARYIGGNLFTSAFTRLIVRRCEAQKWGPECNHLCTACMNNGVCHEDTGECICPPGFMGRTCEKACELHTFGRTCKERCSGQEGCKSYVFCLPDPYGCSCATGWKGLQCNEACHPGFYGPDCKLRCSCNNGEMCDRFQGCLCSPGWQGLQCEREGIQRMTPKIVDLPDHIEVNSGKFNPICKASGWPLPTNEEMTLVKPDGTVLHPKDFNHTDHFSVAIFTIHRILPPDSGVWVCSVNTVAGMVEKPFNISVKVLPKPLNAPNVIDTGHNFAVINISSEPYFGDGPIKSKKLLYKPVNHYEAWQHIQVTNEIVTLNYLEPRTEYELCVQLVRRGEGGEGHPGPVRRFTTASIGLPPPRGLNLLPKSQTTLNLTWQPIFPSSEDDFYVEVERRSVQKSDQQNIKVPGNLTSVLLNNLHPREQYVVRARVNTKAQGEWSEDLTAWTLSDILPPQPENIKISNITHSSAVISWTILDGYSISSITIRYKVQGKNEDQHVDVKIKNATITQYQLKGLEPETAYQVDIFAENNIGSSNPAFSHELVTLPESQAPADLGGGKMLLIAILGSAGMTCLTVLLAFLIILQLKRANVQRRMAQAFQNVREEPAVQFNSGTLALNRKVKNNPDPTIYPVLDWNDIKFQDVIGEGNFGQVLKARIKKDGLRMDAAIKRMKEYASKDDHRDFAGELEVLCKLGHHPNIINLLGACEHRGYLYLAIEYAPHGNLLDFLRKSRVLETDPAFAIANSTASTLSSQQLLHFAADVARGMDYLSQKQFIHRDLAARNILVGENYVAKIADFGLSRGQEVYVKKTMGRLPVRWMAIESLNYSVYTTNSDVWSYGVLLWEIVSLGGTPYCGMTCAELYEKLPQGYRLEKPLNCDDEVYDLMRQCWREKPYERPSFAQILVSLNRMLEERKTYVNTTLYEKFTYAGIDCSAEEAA

Structure (SMILES) | Activity (Angiopoietin-1 receptor [1]) | pKd (Angiopoietin-1 receptor [2]) | Activity (Angiopoietin-1 receptor [3]) | Activity (Angiopoietin-1 receptor [4])
O=C(N[C@H](Cc1ccccc1F)C(=O)O)OCC1c2ccccc2-c2ccccc21 | Active | 3.92 |  | 
CC1(C)S[C@@H]2[C@H](NC(=O)[C@H](N)c3ccccc3)C(=O)N2[C@H]1C(=O)O [AMPICILLIN] | Active | 4.09 |  | 
O=C(O)COCCN1CCN(C(c2ccccc2)c2ccc(Cl)cc2)CC1 (centres undefined) [CETIRIZINE] | Active | 4.05 |  | 
CN(C)C(=O)C(CCN1CCC(O)(c2ccc(Cl)cc2)CC1)(c1ccccc1)c1ccccc1 [LOPERAMIDE] |  | 5.23 | Active | Active
